Laboratory results published in the supplement of paper PMC4862054.
Where “and” joins values, the source holds several entries; their conditions need not be identical. Equal values may be shown once.

Columns and labels:
Conditions in all cases: incubation time: 72 h
CAL-51 [1] = assay: drug sensitivity score (DSS), CellTiter-Blue viability (DSS (AUC-based score)); higher = stronger viability inhibition; extreme values may be limits of the assay
Description: (§1)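 DSRT with the CellTiter-Blue (resazurin reduction) viability readout, fluorescence 560/590 nm, 72 h incubation. Plates were normalised to DMSO and benzethonium chloride controls. DSS is computed from the area under the fitted dose-response curve (5 or 9 concentrations).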

DU-4475 [2] = assay: as above
Description: as §1

BT-474 = assay: as above
Description: as §1

MFM-223 = assay: as above
Description: as §1

HDQ-P1 [3] = assay: as above
Description: as §1

CAL-148 [4] = assay: as above
Description: as §1

BT-549 = assay: as above
Description: as §1

CAL-120 = assay: as above
Description: as §1

MDA-MB-468 = assay: as above
Description: as §1

SK-BR-3 = assay: as above
Description: as §1

CAL-85-1 [5] = assay: as above
Description: as §1

HCC1599 = assay: as above
Description: as §1

MDA-MB-231 = assay: as above
Description: as §1

HCC1143 = assay: as above
Description: as §1

MDA-MB-453 [6] = assay: as above
Description: as §1

CAL-51 [7] = assay: normalised viability (% of control), CellTiter-Blue; higher = more viable cells (about 100 = DMSO control)
Description: (§2)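 DSRT, CellTiter-Blue viability, 72 h incubation. Signal is normalised to DMSO and benzethonium chloride controls. Value is the normalised response at dose 9.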

DU-4475 [8] = assay: as above
Description: as §2

HDQ-P1 [9] = assay: as above
Description: as §2

CAL-148 [10] = assay: as above
Description: as §2

CAL-85-1 [11] = assay: as above
Description: as §2

MDA-MB-453 [12] = assay: as above
Description: as §2

CAL-51 [13] = assay: as above; remark: listed apart in the source
Description: (§3)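 DSRT, CellTiter-Blue viability, 72 h incubation. Signal is normalised to DMSO and benzethonium chloride controls. Value is the normalised response at dose 8.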

DU-4475 [14] = assay: as above; remark: listed apart in the source
Description: as §3

HDQ-P1 [15] = assay: as above; remark: listed apart in the source
Description: as §3

CAL-148 [16] = assay: as above; remark: listed apart in the source
Description: as §3

CAL-85-1 [17] = assay: as above; remark: listed apart in the source
Description: as §3

MDA-MB-453 [18] = assay: as above; remark: listed apart in the source
Description: as §3

## C=CC(=O)N1CCC[C@@H](n2nc(-c3ccc(Oc4ccccc4)cc3)c3c(N)ncnc32)C1
CAL-51 [1]
  drug sensitivity score: 0
DU-4475 [2]
  drug sensitivity score: 0
BT-474
  drug sensitivity score: 12.7
MFM-223
  drug sensitivity score: 0
HDQ-P1 [3]
  drug sensitivity score: 1.18
CAL-148 [4]
  drug sensitivity score: 0
BT-549
  drug sensitivity score: 0
CAL-120
  drug sensitivity score: 0
MDA-MB-468
  drug sensitivity score: 3.83
SK-BR-3
  drug sensitivity score: 18.7
CAL-85-1 [5]
  drug sensitivity score: 5.07
HCC1599
  drug sensitivity score: 0
MDA-MB-231
  drug sensitivity score: 0
HCC1143
  drug sensitivity score: 0
MDA-MB-453 [6]
  drug sensitivity score: 14.8
CAL-51 [7]; 1000 nM
  normalised viability: 86.5%
DU-4475 [8]; 1000 nM
  normalised viability: 97.8%
HDQ-P1 [9]; 1000 nM
  normalised viability: 69.1%
CAL-148 [10]; 1000 nM
  normalised viability: 76.3%
CAL-85-1 [11]; 1000 nM
  normalised viability: 49.1%
MDA-MB-453 [12]; 1000 nM
  normalised viability: 26.5%
CAL-51 [13]; 300 nM
  normalised viability: 85.5%
DU-4475 [14]; 300 nM
  normalised viability: 96.1%
HDQ-P1 [15]; 300 nM
  normalised viability: 87.5%
CAL-148 [16]; 300 nM
  normalised viability: 84.6%
CAL-85-1 [17]; 300 nM
  normalised viability: 57.1%
MDA-MB-453 [18]; 300 nM
  normalised viability: 26.9%

## Nc1nc2[nH]cc(CCc3ccc(C(=O)N[C@@H](CCC(=O)O)C(=O)O)cc3)c2c(=O)[nH]1 [Pemetrexed]
CAL-51 [1]
  drug sensitivity score: 0
DU-4475 [2]
  drug sensitivity score: 0
BT-474
  drug sensitivity score: 0
MFM-223
  drug sensitivity score: 0
HDQ-P1 [3]
  drug sensitivity score: 0
CAL-148 [4]
  drug sensitivity score: 0
BT-549
  drug sensitivity score: 0
CAL-120
  drug sensitivity score: 1.61
MDA-MB-468
  drug sensitivity score: 0
SK-BR-3
  drug sensitivity score: 9.22
CAL-85-1 [5]
  drug sensitivity score: 5.19
HCC1599
  drug sensitivity score: 0
MDA-MB-231
  drug sensitivity score: 0
HCC1143
  drug sensitivity score: 3.58
MDA-MB-453 [6]
  drug sensitivity score: 0
CAL-51 [7]; 10000 nM
  normalised viability: 91%
DU-4475 [8]; 10000 nM
  normalised viability: 99.7%
HDQ-P1 [9]; 10000 nM
  normalised viability: 106%
CAL-148 [10]; 10000 nM
  normalised viability: 66.5%
CAL-85-1 [11]; 10000 nM
  normalised viability: 55.4%
MDA-MB-453 [12]; 10000 nM
  normalised viability: 92.6%
CAL-51 [13]; 3000 nM
  normalised viability: 109%
DU-4475 [14]; 3000 nM
  normalised viability: 124%
HDQ-P1 [15]; 3000 nM
  normalised viability: 109%
CAL-148 [16]; 3000 nM
  normalised viability: 99.3%
CAL-85-1 [17]; 3000 nM
  normalised viability: 62.6%
MDA-MB-453 [18]; 3000 nM
  normalised viability: 83%

## Oc1ncc(N(CCCl)CCCl)c(O)n1 [Uracil mustard]
CAL-51 [1]
  drug sensitivity score: 0
DU-4475 [2]
  drug sensitivity score: 0
BT-474
  drug sensitivity score: 0
MFM-223
  drug sensitivity score: 0
HDQ-P1 [3]
  drug sensitivity score: 0
CAL-148 [4]
  drug sensitivity score: 0
BT-549
  drug sensitivity score: 0
CAL-120
  drug sensitivity score: 0
MDA-MB-468
  drug sensitivity score: 0
SK-BR-3
  drug sensitivity score: 0
CAL-85-1 [5]
  drug sensitivity score: 0
HCC1599
  drug sensitivity score: 0
MDA-MB-231
  drug sensitivity score: 0
HCC1143
  drug sensitivity score: 0
MDA-MB-453 [6]
  drug sensitivity score: 0
CAL-51 [7]; 10000 nM
  normalised viability: 91.6%
DU-4475 [8]; 10000 nM
  normalised viability: 94.9%
HDQ-P1 [9]; 10000 nM
  normalised viability: 110%
CAL-148 [10]; 10000 nM
  normalised viability: 105%
CAL-85-1 [11]; 10000 nM
  normalised viability: 93.9%
MDA-MB-453 [12]; 10000 nM
  normalised viability: 104%
CAL-51 [13]; 3000 nM
  normalised viability: 99.6%
DU-4475 [14]; 3000 nM
  normalised viability: 105%
HDQ-P1 [15]; 3000 nM
  normalised viability: 115%
CAL-148 [16]; 3000 nM
  normalised viability: 113%
CAL-85-1 [17]; 3000 nM
  normalised viability: 93.8%
MDA-MB-453 [18]; 3000 nM
  normalised viability: 92.8%

## Nc1ncn([C@H]2C[C@H](O)[C@@H](CO)O2)c(=O)n1 [Decitabine]
DU-4475 [2]
  drug sensitivity score: 4.16 and 2.07
MFM-223
  drug sensitivity score: 0
HDQ-P1 [3]
  drug sensitivity score: 0
BT-549
  drug sensitivity score: 4.59 and 2.2
CAL-120
  drug sensitivity score: 0
MDA-MB-468
  drug sensitivity score: 21.5 and 21.6
SK-BR-3
  drug sensitivity score: 2.77 and 1.44
CAL-85-1 [5]
  drug sensitivity score: 0
HCC1143
  drug sensitivity score: 5.09 and 8.28
CAL-51 [7]; 10000 nM
  normalised viability: 66.7% and 70.4%
DU-4475 [8]; 10000 nM
  normalised viability: 53.4% and 64.7%
HDQ-P1 [9]; 10000 nM
  normalised viability: 97.9% and 90.5%
CAL-51 [13]; 3000 nM
  normalised viability: 98.4% and 79.8%
DU-4475 [14]; 3000 nM
  normalised viability: 69.8% and 78.9%
HDQ-P1 [15]; 3000 nM
  normalised viability: 88.6% and 93.3%
CAL-148 [16]; 3000 nM
  normalised viability: 81.2% and 73.7%
CAL-85-1 [17]; 3000 nM
  normalised viability: 83% and 88.5%
MDA-MB-453 [18]; 3000 nM
  normalised viability: 87% and 93.1%

## Cc1ccc(-c2cc(C(F)(F)F)nn2-c2ccc(S(N)(=O)=O)cc2)cc1 [Celecoxib]
CAL-51 [1]
  drug sensitivity score: 0
DU-4475 [2]
  drug sensitivity score: 0
BT-474
  drug sensitivity score: 0
MFM-223
  drug sensitivity score: 0
HDQ-P1 [3]
  drug sensitivity score: 4.34
CAL-148 [4]
  drug sensitivity score: 0
BT-549
  drug sensitivity score: 0
CAL-120
  drug sensitivity score: 0
MDA-MB-468
  drug sensitivity score: 0
SK-BR-3
  drug sensitivity score: 0
CAL-85-1 [5]
  drug sensitivity score: 0
HCC1599
  drug sensitivity score: 0
MDA-MB-231
  drug sensitivity score: 0
HCC1143
  drug sensitivity score: 0
MDA-MB-453 [6]
  drug sensitivity score: 1.65
CAL-51 [7]; 10000 nM
  normalised viability: 90.6%
DU-4475 [8]; 10000 nM
  normalised viability: 68.5%
HDQ-P1 [9]; 10000 nM
  normalised viability: 80.3%
CAL-148 [10]; 10000 nM
  normalised viability: 55.1%
CAL-85-1 [11]; 10000 nM
  normalised viability: 63.4%
MDA-MB-453 [12]; 10000 nM
  normalised viability: 34%
CAL-51 [13]; 3000 nM
  normalised viability: 99.5%
DU-4475 [14]; 3000 nM
  normalised viability: 96.6%
HDQ-P1 [15]; 3000 nM
  normalised viability: 83.9%
CAL-148 [16]; 3000 nM
  normalised viability: 89.3%
CAL-85-1 [17]; 3000 nM
  normalised viability: 77.6%
MDA-MB-453 [18]; 3000 nM
  normalised viability: 91.7%

## O=C(O)C1(C(=O)O)CCC1.[NH2-].[NH2-].[Pt+2] [Carboplatin]
CAL-51 [1]
  drug sensitivity score: 1.03
DU-4475 [2]
  drug sensitivity score: 0
BT-474
  drug sensitivity score: 0
MFM-223
  drug sensitivity score: 1.39
HDQ-P1 [3]
  drug sensitivity score: 0
CAL-148 [4]
  drug sensitivity score: 2.02
BT-549
  drug sensitivity score: 0
CAL-120
  drug sensitivity score: 0
MDA-MB-468
  drug sensitivity score: 0
SK-BR-3
  drug sensitivity score: 0
CAL-85-1 [5]
  drug sensitivity score: 0
HCC1599
  drug sensitivity score: 0
MDA-MB-231
  drug sensitivity score: 0
HCC1143
  drug sensitivity score: 0
MDA-MB-453 [6]
  drug sensitivity score: 1.79
CAL-51 [7]; 10000 nM
  normalised viability: 42.3%
DU-4475 [8]; 10000 nM
  normalised viability: 63.2%
HDQ-P1 [9]; 10000 nM
  normalised viability: 122%
CAL-148 [10]; 10000 nM
  normalised viability: 44.6%
CAL-85-1 [11]; 10000 nM
  normalised viability: 56.2%
MDA-MB-453 [12]; 10000 nM
  normalised viability: 25.9%
CAL-51 [13]; 3000 nM
  normalised viability: 115%
DU-4475 [14]; 3000 nM
  normalised viability: 107%
HDQ-P1 [15]; 3000 nM
  normalised viability: 86%
CAL-148 [16]; 3000 nM
  normalised viability: 86%
CAL-85-1 [17]; 3000 nM
  normalised viability: 87.7%
MDA-MB-453 [18]; 3000 nM
  normalised viability: 105%

## C[C@H]1C[C@@H]2[C@H]([C@@H](O)C[C@@]3(C)[C@H]2CC[C@]3(O)C(=O)CO)[C@@]2(C)C=CC(=O)C=C12 [Methylprednisolone]
CAL-51 [1]
  drug sensitivity score: 0
DU-4475 [2]
  drug sensitivity score: 0
BT-474
  drug sensitivity score: 0
MFM-223
  drug sensitivity score: 0
HDQ-P1 [3]
  drug sensitivity score: 0
CAL-148 [4]
  drug sensitivity score: 0
BT-549
  drug sensitivity score: 3.25
CAL-120
  drug sensitivity score: 0
MDA-MB-468
  drug sensitivity score: 0
SK-BR-3
  drug sensitivity score: 0
CAL-85-1 [5]
  drug sensitivity score: 0
HCC1599
  drug sensitivity score: 0
MDA-MB-231
  drug sensitivity score: 0
HCC1143
  drug sensitivity score: 0
MDA-MB-453 [6]
  drug sensitivity score: 6.93
CAL-51 [7]; 10000 nM
  normalised viability: 92.5%
DU-4475 [8]; 10000 nM
  normalised viability: 87.4%
HDQ-P1 [9]; 10000 nM
  normalised viability: 123%
CAL-148 [10]; 10000 nM
  normalised viability: 106%
CAL-85-1 [11]; 10000 nM
  normalised viability: 91%
MDA-MB-453 [12]; 10000 nM
  normalised viability: 75.7%
CAL-51 [13]; 3000 nM
  normalised viability: 105%
DU-4475 [14]; 3000 nM
  normalised viability: 97.9%
HDQ-P1 [15]; 3000 nM
  normalised viability: 105%
CAL-148 [16]; 3000 nM
  normalised viability: 96.8%
CAL-85-1 [17]; 3000 nM
  normalised viability: 101%
MDA-MB-453 [18]; 3000 nM
  normalised viability: 74.1%
